The subject of this test is H460 non-small cell lung cancer human tumor cell line. The experiment in a line: In vitro human tumor cell line cytotoxicity (proliferation) assay on H460, CTG, with or without AST-3021. The test is classed as cell-based. The conditions noted are these: for IC50: Homo sapiens. On the procedure:
In vitro human tumor cell line cytotoxicity assay was used.
In vitro proliferation data on the H460 non-small cell lung cancer human tumor cell line (cell line which highly expresses AKR1C3) is reported below in the compound table.
IC50 values were obtained with the following steps:
Specifically, exponentially growing cells were seeded at a density of 2×10^3 cells/100 μL/well in a 96-well plate and incubated at 37° C. in 5% CO2, 95% air and 100% relative humidity for 24 hours. The test compound was administered alone: 24 hours after cell plating, the compound acted alone, 99 μL of growth medium per well was added, and 1 μL of the compound prepared at 200× was added, and the plate was shaken gently to ensure even mixing, then placed into an incubator of 37° C., 5% CO2. After further cultivation for 72 hours, the number of live cells was detected using CTG. The CTG detection method was as follows: the cell plate to be tested was placed at room temperature to equilibrate for 30 minutes, and 100 μL of medium per well was discarded. 25 μL of CTG reagent (CellTiter-Glo® kit) per well was added, and the plate was placed in a high-speed shaker to oscillate for 2 minutes, and placed at room temperature in the dark for 30 minutes. The chemiluminescence signal value was read using a multimode microplate reader, with a read time of 1000 ms.
Similarly, in order to further verify that the compounds were activated by human AKR1C3 (aldosterone reductase family 1 member C3), the effect of some of the compounds on the proliferation of H460 cancer cells was tested with pretreatment with a specific AKR1C3 enzyme inhibitor AST-3021 (3 μM). The detailed experimental procedure was as follows: 24 hours after cell plating, 98 μL of growth medium per well was added, and 1 μL of 200×compound AST-3021 was added to each well, and the plate was shaken gently to ensure even mixing, and then placed into an incubator; after 2 hours, 1 μL of the test compound prepared at 200× was added, and the plate was shaken gently to ensure even mixing and then laced into an incubator of 37° C., 5% CO2. The inhibitor used was compound 36, i.e.
in Flanagan et al., Bioorganic and Medicinal Chemistry (2014), page 962-977, and is referred to as AST-3021 in this invention. The values measured in this case are values corresponding to +AST-3021 IC50 (nM) in Table 1.
The value corresponding to +AST-3021 IC50 (nM) divided by the value corresponding to IC50 (nM) is the specific activation ratio. The relative magnitude of the specific activation ratio can be used to evaluate whether this compound is a cytotoxic compound activated by human AKR1C3 (aldosterone reductase family 1 member C3): when the specific activation ratio is less than 1, it is considered that the compound is not activated by human AKR1C3 (aldosterone reductase family 1 member C3); when the specific activation ratio is greater than 1, it is considered that the compound is activated by human AKR1C3 (aldosterone reductase family 1 member C3), and the higher the value, the higher the activation degree and the selectivity of AKR1C3.

The mark [1] stands for this setting: NCI-H460, compound alone, 72 hours, read-out: IC50.
The mark [2] stands for this setting: NCI-H460, pretreatment with AKR1C3 inhibitor AST-3021 (3 μM), read-out: +AST-3021 IC50.

The source of these data is patent US20240368209A1, “GEMCITABINE ANTICANCER DERIVATIVE AND ANTICANCER PHARMACEUTICAL USE” (ASCENTAWITS PHARMACEUTICALS, LTD., priority 2021, published 2024).

Where two headings read alike, the source gives them in different places.

In the case of `CCN(CC)P(=O)(OCc1ccc([N+](=O)[O-])c(Oc2ccc(-c3ccc(F)cc3)c(F)c2)c1)OCC1OC(n2ccc(N)nc2=O)C(F)(F)C1O` (stereo not drawn) [Compound D2, reference compound], the “specific activation ratio (+AST-3021 IC50/IC50)” value (from here on “specific activation ratio”) was 45.1. The IC50 under setting [1] was 96.9 nM. Besides, the IC50 under setting [2] came to 4370 nM.

As for `Nc1ccn(C2OC(COP(=O)(OCc3ccc([N+](=O)[O-])c(Oc4ccc(-c5ccc(F)cc5)c(F)c4)c3)Oc3ccccc3)C(O)C2(F)F)c(=O)n1` (stereo not drawn) [Compound D6, reference compound], the “specific activation ratio” value was 0.54. Moreover, under setting [1], the concentration for half-maximal inhibition (IC50) is 20.6 nM. Under setting [2], the IC50 was 11.2 nM.

With `Nc1ccn(C2OC(COP(=O)(OCc3ccc([N+](=O)[O-])c(Oc4ccc(C(F)(F)F)cc4)c3)Oc3ccccc3)C(O)C2(F)F)c(=O)n1` (stereo not drawn) [Compound D7, reference compound], the “specific activation ratio” value came to 0.77. The IC50 under setting [1] came out at 50.3 nM. Besides, the IC50 under setting [2] was determined as 38.9 nM.

On to `CC(OP(=O)(OCC1OC(n2ccc(N)nc2=O)C(F)(F)C1O)N(C)C)c1ccc([N+](=O)[O-])c(Oc2ccc(-c3ccc(F)cc3)c(F)c2)c1` (stereo not drawn) [Compound D9, reference compound], for which the “specific activation ratio” value came to 56.5. The IC50 under setting [1] stood at 67.8 nM. For the same compound, the IC50 under setting [2] amounted to 3830 nM.

As to `CNP(=O)(OCc1ccc([N+](=O)[O-])c(Oc2ccc(-c3ccc(F)cc3)c(F)c2)c1)OCC1OC(n2ccc(N)nc2=O)C(F)(F)C1O` (stereo not drawn) [Compound H1], the “specific activation ratio” value is recorded as 24.2. The IC50 under setting [1] worked out at 29.4 nM. Besides, the IC50 under setting [2] came to 712 nM.

In the case of `CCNP(=O)(OCc1ccc([N+](=O)[O-])c(Oc2ccc(-c3ccc(F)cc3)c(F)c2)c1)OCC1OC(n2ccc(N)nc2=O)C(F)(F)C1O` (stereo not drawn) [Compound H2], the “specific activation ratio” value is on record as 47.8. For the same compound, under setting [1], the IC50 was found to be 19.9 nM. Further, the IC50 under setting [2] worked out at 951 nM.

`Nc1ccn(C2OC(COP(=O)(NCCBr)OCc3ccc([N+](=O)[O-])c(Oc4ccc(-c5ccc(F)cc5)c(F)c4)c3)C(O)C2(F)F)c(=O)n1` (stereo not drawn) [Compound H4]: the “specific activation ratio” value was 6.2. Under setting [1], the IC50 amounted to 5.15 nM. In addition, the IC50 under setting [2] came out at 31.7 nM.

For `CNP(=O)(OCc1ccc([N+](=O)[O-])c(Oc2ccc(C(F)(F)F)cc2)c1)OCC1OC(n2ccc(N)nc2=O)C(F)(F)C1O` (stereo not drawn) [Compound H5], the “specific activation ratio” value was determined as 4.2. Moreover, the IC50 under setting [1] amounted to 117 nM. In addition, the IC50 under setting [2] came out at 499 nM.

`CCNP(=O)(OCc1ccc([N+](=O)[O-])c(Oc2ccc(C(F)(F)F)cc2)c1)OCC1OC(C2N=CC(N)=NC2=O)C(F)(F)C1O` (stereo not drawn) [Compound H6]: the “specific activation ratio” value is recorded as 12.9. Further, the IC50 under setting [1] turned out to be 178 nM. Also, the IC50 under setting [2] came out at 2300 nM.

Take `CC(C)CNP(=O)(OCc1ccc([N+](=O)[O-])c(Oc2ccc(-c3ccc(F)cc3)c(F)c2)c1)OCC1OC(C2N=CC(N)=NC2=O)C(F)(F)C1O` (stereo not drawn) [Compound H7]: the “specific activation ratio” value is 61.3. Besides, under setting [1], the IC50 was found to be 26.8 nM. Moreover, under setting [2], the IC50 was 1640 nM.

As to `NC1=NC(=O)C(C2OC(COP(=O)(NCc3ccccc3)OCc3ccc([N+](=O)[O-])c(Oc4ccc(-c5ccc(F)cc5)c(F)c4)c3)C(O)C2(F)F)N=C1` (stereo not drawn) [Compound H8], the “specific activation ratio” value is reported as 44.8. The IC50 under setting [1] came out at 67.5 nM. Besides, the IC50 under setting [2] was 3020 nM.

Take `NC1=NC(=O)C(C2OC(COP(=O)(NCc3ccccc3)OCc3ccc([N+](=O)[O-])c(Oc4ccc(C(F)(F)F)cc4)c3)C(O)C2(F)F)N=C1` (stereo not drawn) [Compound H9]: the “specific activation ratio” value amounted to 23.2. Moreover, the IC50 under setting [1] came to 78.2 nM. Besides, the IC50 under setting [2] came out at 1810 nM.

Turning to `CC(C)CNP(=O)(OCc1ccc([N+](=O)[O-])c(Oc2ccc(C(F)(F)F)cc2)c1)OCC1OC(C2N=CC(N)=NC2=O)C(F)(F)C1O` (stereo not drawn) [Compound H10], the “specific activation ratio” value was found to be 27.7. Also, the IC50 under setting [1] stood at 105 nM. In addition, the IC50 under setting [2] came to 2900 nM.
